# Test results reported in patent US20250025429A1, “LIPID NANOPARTICLES FOR OLIGONUCLEOTIDE DELIVERY” (ZIPHIUS NV, priority 2021, published 2025).
# Experiments:
# [1] = saRNA encapsulation, Quant-IT RiboGreen assay; type: physicochemical; conditions: LNP with saRNA; RiboGreen with or without 2% Triton X-100
# Method: The saRNA loading in LNP formulations was quantified using a Quant-IT RiboGreen assay (Thermo Fisher Scientific, Waltham, Massachusetts, USA) as previously described. 14 samples were diluted tenfold in 1× Tris HCL—EDTA (TE) buffer (10 mM Tris-HCL, 1 mM EDTA, pH 7.5) with or without 2% (v/v) Triton X-100 (Sigma-Aldrich, Saint Louis, Missouri, USA). Standard solutions were also prepared in 1×TE with or without 2% (v/v) Triton X-100 to account for any variation in fluorescence. The assay was performed according to the manufacturer's protocol. Samples were loaded on a black 96-well plate and analysed for fluorescence on a microplate reader (Tecan Infinite@200 PRO) at an excitation of 485 nm and emission at 528 nm. Encapsulation efficiency was calculated between 80-100%.
# [2] = system: luciferase saRNA; test: In vivo bioluminescent imaging after intramuscular injection of LNP-formulated luciferase saRNA; conditions: female SWISS mice, 1 μg luciferase saRNA intramuscularly
# Method: (§1) Female SWISS mice (6 weeks old) were purchased from Janvier Laboratories (Paris, France) and kept in individually ventilated cages with access to food and water ad libitum. Mice were anesthetized with isoflurane (Zoetis, Louvain-La-Neuve, Belgium) (5% for induction and 2% for maintenance) and intramuscularly injected with a total of 1 μg in 100 μL Tris-HCL (50 μL per leg) LNP-formulated luciferase saRNA (for each group n=7). The expression of the luciferase induced bioluminescence was measured via non-invasive In vivo bioluminescent imaging (In vivo Imaging System (IVIS) Lumina III, Perkin Elmer, Waltham, Massachusetts, USA), 10 minutes after subcutaneous injection of 200 μL of D-luciferin (GoldBio, Saint Louis, Missouri, USA, #LUCK-1G) were measured in day 0 (before injection), day 1, day 3, day 5, day 7, day 10, day 15 and day 20. Table 4 and 5 report on the in vivo study using exemplary compounds 10-21, 10-44 and 10-45 and comparator lipids C12-200 and C1. […] Table 5 supports good tolerability of the compounds according to formula I.
# [3] = Body weight of mice in the in vivo study (tolerability); conditions: female SWISS mice, 1 μg LNP-formulated saRNA intramuscularly
# Method: as §1
# [4] = LNP characterisation by Zeta Sizer (particle size, polydispersity, charge); type: physicochemical; conditions: LNP with saRNA; lipid:DOPE:Cholesterol:DMG-PEG 35:20:43.5:1.5; N/P approximately 40/1
# Method: Cationic lipids, DOPE, Cholesterol and DMG-PEG lipid were solubilized in ethanol or DMSO at a molar ratio of 35:20:43.5:1.5 and a concentration of 100:25:20:25 μg/μL for C12-200 or 170:25:20:25 μg/μL for the comparator lipids. Lipid nanoparticles (LNP) were prepared by targeting an N/P ratio of approximately 40/1 with saRNA. Briefly, the saRNA was diluted to 0.5 mg/mL in 5 mM citrate buffer, pH 4.5. Microfluidic mixer (Ignite from Precision Nanosystems, California, USA) was used to mix the lipid solution with the saRNA aqueous solution at a ratio of about 1:3 (vol/vol) with total flow rates above 10 ml/min. The ethanol was then removed, and the external buffer replaced with 10 mM TRIS-HCL, pH 7.4, by dialysis. Finally, the lipid nanoparticles were filtered through a 0.2 μm pore sterile filter. Lipid nanoparticle particle size was 50-150 nm diameter and polydispersity index (PI) of 0.1-0.4 as determined by Zeta Sizer (Malvern Panalytical, UK). The charge of the formulation was also measured by Zeta Sizer and ranged between 20 to −20 mV.
Encapsulation (%) [1],Polydispersity Index (PI) [4],Z-average (nm) [4],Zetapotential (mV) [4],SMILES,Bioluminescence expression of LNPs ([2]; Day 0 (before injection)),Bioluminescence expression of LNPs ([2]; Day 1),Bioluminescence expression of LNPs ([2]; Day 3),Bioluminescence expression of LNPs ([2]; Day 5),Bioluminescence expression of LNPs ([2]; Day 7),Bioluminescence expression of LNPs ([2]; Day 10),Bioluminescence expression of LNPs ([2]; Day 15),Bioluminescence expression of LNPs ([2]; Day 20),Weight ([3]; Day 0 (before injection)),Weight ([3]; Day 1),Weight ([3]; Day 3),Weight ([3]; Day 5),Weight ([3]; Day 7),Weight ([3]; Day 10),Weight ([3]; Day 15),Weight ([3]; Day 20)
99.41%,0.16,72.27 nm,7.05 mV,"CCCCCCC(CCCC)C(=O)OCCCCN(CCCCOC(=O)C(CCCC)CCCCCC)CCN1CCN(CCO)CC1 (stereo not shown) [Compound 10-21, ((2-(4-(2-hydroxyethyl)piperazin-1-yl)ethyl)azanediyl)bis(butane-4,1-diyl) bis(2-butyloctanoate)]",3.89E+04,3.23E+06,5.03E+07,8.74E+07,5.77E+07,7.72E+06,2.44E+05,1.62E+05,27.96 g,28.19 g,28.26 g,27.90 g,28.01 g,27.57 g,28.63 g,30.83 g
100.06%,0.15,67.46 nm,1.25 mV,"CCCCCCC(CCCC)C(=O)OCCCCN(CCCCOC(=O)C(CCCC)CCCCCC)CCN1CCN(CCN)CC1 (stereo not shown) [Compound 10-44, ((2-(4-(2-aminoethyl)piperazin-1-yl)ethyl)azanediyl)bis(butane-4,1-diyl) bis(2-butyloctanoate)]",2.87E+04,1.61E+07,3.62E+07,4.98E+07,4.24E+07,1.09E+06,5.87E+04,6.12E+04,26.84 g,26.46 g,27.00 g,28.13 g,27.94 g,28.11 g,29.31 g,30.04 g
100.49%,0.1,81.42 nm,2.78 mV,"CCCCCCC(CCCC)C(=O)OCCCCN(CCCCOC(=O)C(CCCC)CCCCCC)CCN1CCN(CCNCCN)CC1 (stereo not shown) [Compound 10-45, ((2-(4-(2-((2-aminoethyl)amino)ethyl)piperazin-1-yl)ethyl)azanediyl)bis(butane-4,1-diyl) bis(2-butyloctanoate)]",6.00E+04,1.09E+07,1.90E+07,1.72E+07,1.68E+07,7.02E+05,7.94E+04,8.63E+04,26.93 g,25.79 g,26.43 g,27.10 g,27.27 g,27.69 g,28.19 g,30.21 g

# More lines, now with the values behind:
SMILES,Encapsulation (%) [1],Polydispersity Index (PI) [4],Z-average (nm) [4],Zetapotential (mV) [4],Bioluminescence expression of LNPs ([2]; Day 0 (before injection)),Bioluminescence expression of LNPs ([2]; Day 1),Bioluminescence expression of LNPs ([2]; Day 3),Bioluminescence expression of LNPs ([2]; Day 5),Bioluminescence expression of LNPs ([2]; Day 7),Bioluminescence expression of LNPs ([2]; Day 10),Bioluminescence expression of LNPs ([2]; Day 15),Bioluminescence expression of LNPs ([2]; Day 20),Weight ([3]; Day 0 (before injection)),Weight ([3]; Day 1),Weight ([3]; Day 3),Weight ([3]; Day 5),Weight ([3]; Day 7),Weight ([3]; Day 10),Weight ([3]; Day 15),Weight ([3]; Day 20)
"CCCCCCCCCCC(O)CN(CCN1CCN(CCN(CC(O)CCCCCCCCCC)CC(O)CCCCCCCCCC)CC1)CCN(CC(O)CCCCCCCCCC)CC(O)CCCCCCCCCC (stereo not shown) [Compound C12-200, 1,1′-((2-(4-(2-((2-(bis(2-hydroxydodecyl)amino)ethyl) (2-hydroxydodecyl)amino)ethyl)piperazin-1-yl)ethyl)azanediyl) bis(dodecan-2-ol), reference compound]",95.32%,0.27,98.11 nm,−5.50 mV,2.39E+04,3.36E+08,6.19E+08,4.79E+08,2.47E+08,2.20E+07,4.80E+05,9.12E+04,28.61 g,27.17 g,28.62 g,28.98 g,28.97 g,29.23 g,30.16 g,31.23 g
"CCCCCCCCCCCCCCOC(=O)CCN(CCC(=O)OCCCCCCCCCCCCCC)CCN1CCN(CCN(CCC(=O)OCCCCCCCCCCCCCC)CCC(=O)OCCCCCCCCCCCCCC)CC1 [Comparator 1 (C1), reference compound]",99.03%,0.16,70.96 nm,9.07 mV,3.32E+04,2.76E+07,1.28E+08,7.19E+07,8.88E+07,5.07E+06,8.46E+04,4.32E+04,26.56 g,25.99 g,27.21 g,27.59 g,27.09 g,27.17 g,29.43 g,30.11 g
